According to patent publication US8188135B2, “Compounds as cannabinoid receptor ligands” (priority 2008, dated 2012):
pKi: −log10 of the molar value. Like-named read-outs stand apart in the source and are kept apart here.

How the values were obtained:
rat CB2 = biological target: T1, rat CB2 (Rattus norvegicus, UniProt Q9QZN9); assay: rat CB2 radioligand binding assay ([3H]CP 55,940 competition); design: expressed in transfected cells; host or cells: HEK293; settings: HEK293 membranes, 0.5 nM [3H]CP 55,940; for Ki: rat CB2 (Ki, nM)
T1 sequence (Q9QZN9 1-360): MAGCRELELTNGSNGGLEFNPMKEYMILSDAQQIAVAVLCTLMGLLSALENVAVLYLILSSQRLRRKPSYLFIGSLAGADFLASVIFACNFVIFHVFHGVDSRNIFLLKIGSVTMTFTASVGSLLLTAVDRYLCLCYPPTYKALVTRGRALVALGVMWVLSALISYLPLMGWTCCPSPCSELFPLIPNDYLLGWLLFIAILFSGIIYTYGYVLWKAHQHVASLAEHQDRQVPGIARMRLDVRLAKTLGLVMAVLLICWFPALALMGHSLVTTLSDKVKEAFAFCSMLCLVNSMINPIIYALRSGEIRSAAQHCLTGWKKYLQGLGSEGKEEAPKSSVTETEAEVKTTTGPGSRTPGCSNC
Method: (§1) The CB1 and CB2 radioligand binding assays described herein are utilized to ascertain the affinity of compounds of the present application for binding to CB2 relative to CB1 receptors.
HEK293 cells stably expressing rat CB2 receptors were grown until a confluent monolayer was formed. Briefly, the cells were harvested and homogenized in TE buffer (50 mM Tris-HCl, 1 mM MgCl2, and 1 mM EDTA) using a polytron for 2×10 second bursts in the presence of protease inhibitors, followed by centrifugation at 45,000×g for 20 minutes. The final membrane pellet was re-homogenized in storage buffer (50 mM Tris-HCl, 1 mM MgCl2, and 1 mM EDTA and 10% sucrose) and frozen at −78° C. until used. Saturation binding reactions were initiated by the addition of membrane preparation (protein concentration of 20 μg/well for rat CB2) into wells of a deep well plate containing [^3H]CP 55,940 (120 Ci/mmol, a nonselective CB agonist commercially available from Tocris) in assay buffer (50 mM Tris, 2.5 mM EDTA, 5 mM MgCl2, and 0.5 mg/mL fatty acid free BSA, pH 7.4). After 45 min incubation at 30° C., binding reaction was terminated by the addition of […] of cold assay buffer followed by rapid vacuum filtration through a UniFilter-96 GF/C filter plates (pre-soaked in 1 mg/mL BSA for 2 hours). The bound activity was counted in a TopCount using Microscint-20. Saturation experiments were conducted with twelve concentrations of [^3H]CP 55,940 ranging from 0.01 to 8 nM. Competition experiments were conducted with 0.5 nM [^3H]CP 55,940 and five concentrations of displacing ligands selected from the range of 0.01 nM to 10 μM. The addition of 10 μM unlabeled CP 55,940 (Tocris, Ellisville, Mo.) was used to assess nonspecific binding.

human CB2 receptors = biological target: T2, human CB2 receptors (Homo sapiens, UniProt P34972); assay: human CB2 radioligand binding assay ([3H]CP 55,940 competition); settings: HEK293 membranes, 0.5 nM [3H]CP 55,940; for Ki: human CB2 (Ki, nM); for pKi: read-out: human CB2 (Ki)
T2 construct: expressed in transfected cells; host or cells: HEK293
Method: as §1
HEK293 cells stably expressing human CB2 receptors were grown until a confluent monolayer was formed. Briefly, the cells were harvested and homogenized in TE buffer (50 mM Tris-HCl, 1 mM MgCl2, and 1 mM EDTA) using a polytron for 2×10 second bursts in the presence of protease inhibitors, followed by centrifugation at 45,000×g for 20 minutes. The final membrane pellet was re-homogenized in storage buffer (50 mM Tris-HCl, 1 mM MgCl2, and 1 mM EDTA and 10% sucrose) and frozen at −78° C. until used. Saturation binding reactions were initiated by the addition of membrane preparation (protein concentration of 5 μg/well for human CB2) into wells of a deep well plate containing [^3H]CP 55,940 (120 Ci/mmol, a nonselective CB agonist commercially available from Tocris) in assay buffer (50 mM Tris, 2.5 mM EDTA, 5 mM MgCl2, and 0.5 mg/mL fatty acid free BSA, pH 7.4). After 90 min incubation at 30° C., binding reaction was terminated by the addition of 300 μL/well of cold assay buffer followed by rapid vacuum filtration through a UniFilter-96 GF/C filter plates (pre-soaked in 1 mg/mL BSA for 2 hours). The bound activity was counted in a TopCount using Microscint-20. Saturation experiments were conducted with twelve concentrations of [^3H]CP 55,940 ranging from 0.01 to 8 nM. Competition experiments were conducted with 0.5 nM [^3H]CP 55,940 and five concentrations (0.01 nM to 10 μM) of displacing ligands. The addition of 10 μM unlabeled CP 55,940 (Tocris, Ellisville, Mo.) was used to assess nonspecific binding.

T2 sequence (P34972 whole entry): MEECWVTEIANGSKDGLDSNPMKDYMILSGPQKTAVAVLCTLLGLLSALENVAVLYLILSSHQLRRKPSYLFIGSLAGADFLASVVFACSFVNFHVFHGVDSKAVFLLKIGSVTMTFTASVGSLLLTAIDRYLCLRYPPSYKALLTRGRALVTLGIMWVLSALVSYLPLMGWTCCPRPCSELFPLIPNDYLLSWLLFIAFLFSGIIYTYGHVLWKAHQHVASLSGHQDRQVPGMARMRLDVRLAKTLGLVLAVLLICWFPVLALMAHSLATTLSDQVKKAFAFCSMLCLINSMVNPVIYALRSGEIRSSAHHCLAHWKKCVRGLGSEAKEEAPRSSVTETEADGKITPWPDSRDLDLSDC

SMILES | Ki (rat CB2) [nM] | Ki (human CB2 receptors) [nM] | pKi (rat CB2; read-out: rat CB2 (Ki)) | pKi (human CB2 receptors)
Cn1c(C(C)(C)C)c/c(=N\C(=O)c2cc(C(F)(F)F)ccc2OCC2(C)COC2)n1C[C@H]1CCCO1 [Example 19, N-{(3E)-5-tert-butyl-1-methyl-2-[(2R)-tetrahydrofuran-2-ylmethyl]-1,2-dihydro-3H-pyrazol-3-ylidene}-2-[3-methyloxetan-3-methoxyl]-5-(trifluoromethyl)benzamide] | 323 | > 1000 | – | –
CO[C@H]1CCO[C@@H]1COc1ccc(C(F)(F)F)cc1C(=O)/N=c1\cc(C(C)(C)C)n(C)n1C[C@H]1CCCO1 [Example 22] | – | – | 6.37 | < 6.00
CN(C[C@@H]1CCCO1)c1ccc(C(F)(F)F)cc1C(=O)/N=c1\cc(C(C)(C)C)n(C)n1C[C@H]1CCCO1 [Example 26, N-{(3E)-5-tert-butyl-1-methyl-2-[(2R)-tetrahydrofuran-2-ylmethyl-]-1,2-dihydro-3H-pyrazol-3-ylidene}-2-{methyl[(2S)-tetrahydrofuran-2-ylmethyl]amino}-5-(trifluoromethyl)benzamide] | 343 | > 1000 | – | –
CC1=NOC(Cn2/c(=N/C(=O)c3cc(C(F)(F)F)ccc3OC[C@@H]3CCCO3)cc(C(C)(C)C)n2C)C1 (stereo partly drawn) [Example 31, N-{(3E)-5-tert-butyl-1-methyl-2-[(3-methyl-4,5-dihydroisoxazol-5-yl)methyl]-1,2-dihydro-3H-pyrazol-3-ylidene}-2-[(2S)-tetrahydrofuran-2-ylmethoxy]-5-(trifluoromethyl)benzamide] | 63 | 239 | – | –
Cn1c(C(C)(C)C)c/c(=N\C(=O)c2cc(C(F)(F)F)ccc2OCc2ccccn2)n1C[C@H]1CCCO1 [Example 38, N-{(3E)-5-tert-butyl-1-methyl-2-[(2R)-tetrahydrofuran-2-ylmethyl]-1,2-dihydro-3H-pyrazol-3-ylidene}-2-(pyridin-2-ylmethoxy)-5-(trifluoromethyl)benzamide] | 26 | – | – | < 6.00
C[C@H](c1ccccc1)N1C[C@@H](COc2ccc(C(F)(F)F)cc2C(=O)/N=c2\cc(C(C)(C)C)n(C)n2C[C@H]2CCCO2)OC1=O [Example 44, N-{(3E)-5-tert-butyl-1-methyl-2-[(2R)-tetrahydrofuran-2-ylmethyl]-1,2-dihydro-3H-pyrazol-3-ylidene}-2-({(5 S)-2-oxo-3-[(1R)-1-phenylethyl]-1,3-oxazolidin-5-yl}methoxy)-5-(trifluoromethyl)benzamide] | 408 | > 1000 | – | –
Cn1c(C(C)(C)C)c/c(=N\C(=O)c2cc(C(F)(F)F)ccc2OCCN2CCNC2=O)n1C[C@H]1CCCO1 [Example 48, N-{(3E)-5-tert-butyl-1-methyl-2-[(2R)-tetrahydrofuran-2-ylmethyl]-1,2-dihydro-3H-pyrazol-3-ylidene}-2-[2-(2-oxoimidazolidin-1-yl)ethoxy]-5-(trifluoromethyl)benzamide] | 53 | – | – | 6.60
Cn1c(C(C)(C)C)c/c(=N\C(=O)c2cc(C(F)(F)F)ccc2OCC2CN(S(C)(=O)=O)C2)n1C[C@H]1CCCO1 [Example 54, N-{(3E)-5-tert-butyl-1-methyl-2-[(2R)-tetrahydrofuran-2-ylmethyl]-1,2-dihydro-3H-pyrazol-3-ylidene}-2-{[1-(methylsulfonyl)azetidin-3-yl]methoxy}-5-(trifluoromethyl)benzamide] | 71 | – | – | 6.72
Cn1c(C(C)(C)C)c/c(=N\C(=O)c2cc(C(F)(F)F)ccc2OCC(C)(C)OCc2ccccc2)n1C[C@H]1CCCO1 [Example 55, 2-[2-(benzyloxy)-2-methylpropoxy]-N-{(3E)-5-tert-butyl-1-methyl-2-[(2R)-tetrahydrofuran-2-ylmethyl]-1,2-dihydro-3H-pyrazol-3-ylidene}-5-(trifluoromethyl)benzamide] | 458 | > 1000 | – | –
CN1CCC[C@H]1COc1ccc(C(F)(F)F)cc1C(=O)/N=c1\ccc(C(C)(C)C)cn1C[C@H]1CCCO1 [Example 59, N-[(2E)-5-tert-butyl-1-[(2R)-tetrahydrofuran-2-ylmethyl]pyridin-2(1H)-ylidene]-2-{[(2S)-1-methylpyrrolidin-2-yl]methoxy}-5-(trifluoromethyl)benzamide] | 69 | 294 | – | –
